Experimental data as given in PubChem BioAssay (NCI).
Several values for one entry are separate records, joined by “and”; a condition that tells them apart may be missing. Equal entries are not always repeated.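 Following 48 hours of exposure in 96-well plates, responses at five concentrations were used to interpolate endpoints linearly. Abbreviation: GI50, concentration required for 50% inhibition of growth. TGI marks complete inhibition of growth.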

Tested on: MDA-MB-468 breast
Test: inhibition of tumour cell growth, NCI panel, 48 h

Structure (SMILES)	GI50 [µM]	TGI
COc1ccc(CN=C(N)N=C(N)N)cc1OC	47.6	477 µM
Cc1c(C(N)=O)sc2c1c(=O)n(Cc1ccccc1)c1nnc(S(=O)(=O)CC(=O)Nc3ccc(Cl)cc3)n21	12.7	36.3 µM
Cc1ccc(S(=O)(=O)Nc2cc(Sc3ccccc3)c(O)c3ccccc23)cc1	1.38	3.36 µM
CN(C)c1ncnc2c1ccn2C1OC(CO)C(O)C1O (stereo unspecified)	0.231	1 µM
O=C1C=C(OCCCl)C(=O)c2c(O)ccc(O)c21	1.64	3.86 µM
O=[N+]([O-])c1cc2c(ccc3occc32)o1	3.18	17.1 µM
Cn1ncnc1C1c2n[nH]c(=O)c3cc(F)cc(c23)NC1c1ccc(F)cc1 (stereo unspecified)	3.74	> 100 µM
CN(CCCN(C)CCC1CCCCC1)CCC1CCCCC1	1.3	2.66 µM
Cc1ccccc1NC(=O)c1cc2ccccc2cc1O	2.64	7.89 µM
N/C(=N\c1nc2c(Br)cccc2s1)C(Br)Br	2.57	9.69 µM
NS(=O)(=O)c1ccc(N2N=C(c3cccs3)CC2c2ccccc2O)cc1 (stereo unspecified)	0.717	3.89 µM
O=CN1N=C(c2ccc(Nc3ccnc4cc(Cl)ccc34)cc2)CC1c1ccc(Cl)cc1 (stereo unspecified)	0.318	8.33 µM
Nc1nc(Cl)nc2c1ncn2[C@@H]1O[C@H](COS(N)(=O)=O)[C@@H](O)[C@H]1O	0.0176	0.0468 µM and 0.0396 µM
COc1ccc2c(c1)C=C1CSCC3=Cc4cc(OC)ccc4OC13O2	0.347	–
Oc1ccc(O)c2c1C1(Cl)C(Cl)=C(Cl)C2(Cl)C1(Cl)Cl	3.71	12.8 µM
CCc1c2c(nc3ccc(OCc4ccc(B5OC(C)(C)C(C)(C)O5)cc4)cc13)-c1cc3c(c(=O)n1C2)COC(=O)[C@]3(O)CC	< 0.01	0.0432 µM
NCCSC(C[N+](=O)[O-])c1ccccc1Cl (stereo unspecified)	2.38	6.5 µM
CNC(=O)c1cncc(/C=C/c2c(Cl)cccc2Cl)c1	4.08	> 19.1 µM
CNc1ncc2cc(Oc3ccc(F)cc3F)c(=O)n(C)c2n1	> 25	> 25 µM
O=C(N/N=C/c1ccc(Br)s1)c1[nH]c2ccc(Br)cc2c1-c1ccccc1	0.327	4.89 µM
O=C(CN1C(=O)S/C(=C\C(Cl)=C\c2ccccc2)C1=O)NCCCn1ccnc1	1.35	4.19 µM
O=C1NC(SCc2ccc(F)cc2)=N/C1=C/c1cccc(OCc2ccc(Cl)cc2)c1	15.8	> 100 µM
CCCC(CCC)C(=O)OCC1(CO)C/C(=C\c2ccc(C(F)(F)F)cc2)C(=O)O1 (stereo unspecified)	16.6	32.9 µM
CCCCN(CCCC)CCC(O)c1cc2ccc(C(F)(F)F)cc2c2cc(C(F)(F)F)ccc12 (stereo unspecified)	1.68	3.46 µM
COc1cc(NC(=O)c2cc(O)c(C/C=C(\C)CCC=C(C)C)c(O)c2)cc2c1O[C@]1(C)CC[C@@H](O)C(C)(C)[C@H]1C2	2	8.08 µM
c1ccc(/C(=N\Nc2ccc3ccccc3n2)c2ccccn2)cc1	0.364	5.82 µM
